Reference: ChEMBL document CHEMBL3044792, “In vitro antioxidant properties and in vivo lowering blood lipid of Forsythia suspense leaves” (Med Chem Res, 2010)
≈ marks a conversion by molar mass, not a printed value. Calls of active or inactive are those of the source. No cut-off for these calls is given here.

Legend:
Assay type in all cases: functional
[1] = test system: Radical scavenging activity; assay: Antioxidant activity assessed as DPPH radical scavenging activity after 30 min
[2] = Antioxidant activity assessed as ferric ion reducing activity measured as trolox equivalents by FRAP assay
[3] = Antioxidant activity assessed as ABTS radical scavenging activity
Mus musculus [4] = assay: Hypolipidemic activity in high cholesterol diet fed Mus musculus KM (mouse) assessed as high density lipoprotein cholesterol at 150 mg/kg, ig for 10 days (reference value: 2.6953+/- 0,58099 mmol/l); conditions: route intragastric
Mus musculus [5] = assay: Hypolipidemic activity in high cholesterol diet fed Mus musculus KM (mouse) assessed as total cholesterol level at 150 mg/kg, ig for 10 days (reference value: 7.3219 +/- 1.00196 mmol/l); conditions: route intragastric
Mus musculus [6] = assay: Hypolipidemic activity in high cholesterol diet fed Mus musculus KM (mouse) assessed as low density lipoprotein cholesterol at 150 mg/kg, ig for 10 days (reference value: 4.2972 +/- 1.1725 mmol/l); conditions: route intragastric
Mus musculus [7] = assay: Antioxidant activity in high cholesterol diet fed Mus musculus KM (mouse) assessed as MDA level in liver at 150 mg/kg, ig for 10 days (reference value: 13.6188 +/- 4.2522 nmol/ml); conditions: route intragastric
Mus musculus [8] = assay: Hypolipidemic activity in high cholesterol diet fed Mus musculus KM (mouse) assessed as triglyceride level at 150 mg/kg, ig for 10 days (reference value: 0.9359 +/- 0.2817 mmol/l); conditions: route intragastric
Mus musculus [9] = assay: Antioxidant activity in high cholesterol diet fed Mus musculus KM (mouse) assessed as MDA level in liver at 70 mg/kg, ig for 10 days (reference value: 9.95 +/- 0.15 nmol/ml); conditions: route intragastric
Mus musculus [10] = assay: Hypolipidemic activity in high cholesterol diet fed Mus musculus KM (mouse) assessed as triglyceride level at 70 mg/kg, ig for 10 days (reference value: 1.391 +/- 0.351 mmol/l); conditions: route intragastric
Mus musculus [11] = assay: Hypolipidemic activity in high cholesterol diet fed Mus musculus KM (mouse) assessed as high density lipoprotein cholesterol at 70 mg/kg, ig for 10 days (reference value: 1.028 +/- 0.139 mmol/l); conditions: route intragastric
Mus musculus [12] = assay: Hypolipidemic activity in high cholesterol diet fed Mus musculus KM (mouse) assessed as low density lipoprotein cholesterol at 70 mg/kg, ig for 10 days (reference value: 3.386 +/- 0.958 mmol/l); conditions: route intragastric
Mus musculus [13] = assay: Hypolipidemic activity in high cholesterol diet fed Mus musculus KM (mouse) assessed as total cholesterol level at 70 mg/kg, ig for 10 days (reference value: 4.402 +/- 0.8 mmol/l); conditions: route intragastric

Compound	IC50 [1]	Activity [2]	IC50 [3]	Activity (Mus musculus [4]) [mmol/L]	Activity (Mus musculus [5]) [mmol/L]	Activity (Mus musculus [6]) [mmol/L]	Activity (Mus musculus [7]) [nmol/mL]	Activity (Mus musculus [8]) [mmol/L]	Activity (Mus musculus [9]) [nmol/mL]	Activity (Mus musculus [10]) [mmol/L]	Activity (Mus musculus [11]) [mmol/L]	Activity (Mus musculus [12]) [mmol/L]	Activity (Mus musculus [13]) [mmol/L]
COc1cc([C@@H]2OC[C@@H]3[C@H]2CO[C@H]3c2ccc(O)c(OC)c2)ccc1O [(+)-PINORESINOL]	8.66 µg/mL (≈ 24.2 µM)	2580 µmol/g	3.08 µg/mL (≈ 8.59 µM)	–	–	–	–	–	–	–	–	–	–
Cc1cc(C(C)(C)C)c(O)c(C(C)(C)C)c1 [BUTYLATED HYDROXYTOLUENE]	17.21 µg/mL (≈ 78.1 µM)	1750 µmol/g	6.04 µg/mL (≈ 27.4 µM)	–	–	–	–	–	–	–	–	–	–
COc1cc([C@H]2OC[C@H]3[C@@H]2CO[C@H]3c2ccc(OC)c(OC)c2)ccc1O [PHILLYGENIN]	15.51 µg/mL (≈ 41.6 µM)	2440 µmol/g	3.58 µg/mL (≈ 9.61 µM)	2.4571	7.2123	3.1861	7.9321	0.3249	–	–	–	–	–
O=c1c(O)c(-c2ccc(O)c(O)c2)oc2cc(O)cc(O)c12 [QUERCETIN]	1.03 µg/mL (≈ 3.41 µM)	inactive	–	–	–	–	–	–	–	–	–	–	–
C[C@@H]1O[C@@H](OC[C@H]2O[C@@H](Oc3c(-c4ccc(O)c(O)c4)oc4cc(O)cc(O)c4c3=O)[C@H](O)[C@@H](O)[C@@H]2O)[C@H](O)[C@H](O)[C@H]1O [RUTIN]	1.83 µg/mL (≈ 3 µM)	inactive	4.65 µg/mL (≈ 7.62 µM)	–	–	–	–	–	5.1	0.828	1.422	2.639	3.124
C[C@H]1[C@H](C)CC[C@]2(C(=O)O)CC[C@]3(C)C(=CC[C@@H]4[C@@]5(C)CC[C@H](O)C(C)(C)[C@@H]5CC[C@]43C)[C@H]12 [URSOLIC ACID]	Not Active	13.6 µmol/g	Not Active	2.4373	5.2196	1.5655	7.326	0.4322	–	–	–	–	–
